From article PMC4599313 (Journal of the American Chemical Society, 2015) come the findings set out here.

Holding throughout (type): biochemical
In one test the target is T1, PglC (Campylobacter jejuni, UniProt Q0P9D0).
T1 sequence (Q0P9D0 1-200): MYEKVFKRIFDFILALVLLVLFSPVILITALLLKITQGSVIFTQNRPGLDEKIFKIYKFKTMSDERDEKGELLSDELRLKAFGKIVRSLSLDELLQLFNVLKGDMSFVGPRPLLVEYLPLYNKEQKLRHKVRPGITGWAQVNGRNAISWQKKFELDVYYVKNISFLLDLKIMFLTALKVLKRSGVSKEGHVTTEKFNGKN
The experiment in a line: capillary electrophoresis of APTS-labelled monosaccharide. To be noted: Und-P acceptor; 60 min; PglC 10 nM.

Another test deals with T2, PglH (Campylobacter jejuni, UniProt Q0P9C5).
T2 sequence (Q0P9C5 1-359): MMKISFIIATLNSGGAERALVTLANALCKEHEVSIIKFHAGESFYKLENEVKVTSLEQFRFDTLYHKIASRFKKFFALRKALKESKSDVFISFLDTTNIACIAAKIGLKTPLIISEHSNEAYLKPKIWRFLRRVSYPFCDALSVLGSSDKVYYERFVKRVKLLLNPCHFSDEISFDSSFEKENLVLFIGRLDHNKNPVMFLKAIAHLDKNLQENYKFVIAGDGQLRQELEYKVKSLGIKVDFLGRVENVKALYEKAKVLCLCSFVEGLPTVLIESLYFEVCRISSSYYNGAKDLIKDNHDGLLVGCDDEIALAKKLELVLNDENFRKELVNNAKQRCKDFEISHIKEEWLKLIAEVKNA
The experiment in a line: normal-phase HPLC of [3H]-labelled glycan. Conditions: [3H]-labelled Und-PP-diNAcBac-GalNAc-GalNAz acceptor.

A further test has as its target T3, PglJ (Campylobacter jejuni, UniProt Q0P9C7).
T3 sequence (Q0P9C7 1-365): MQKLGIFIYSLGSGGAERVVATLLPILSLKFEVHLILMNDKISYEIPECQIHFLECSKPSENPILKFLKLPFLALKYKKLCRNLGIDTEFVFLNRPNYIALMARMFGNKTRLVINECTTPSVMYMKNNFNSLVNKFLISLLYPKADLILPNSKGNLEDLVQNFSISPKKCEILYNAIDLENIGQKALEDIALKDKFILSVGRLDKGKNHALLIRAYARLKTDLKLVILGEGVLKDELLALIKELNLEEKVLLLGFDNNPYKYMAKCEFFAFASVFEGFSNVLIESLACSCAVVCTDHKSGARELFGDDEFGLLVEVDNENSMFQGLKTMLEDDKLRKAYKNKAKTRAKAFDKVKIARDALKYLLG
The experiment in a line: HPLC and scintillation counting of [3H]-labelled product. To be noted: Und-PP-diNAcBac-[3H]-GalNAc acceptor; 100 uM UDP-sugar; PglJ 90 nM.

Consider `CC(=O)N[C@H]1[C@@H](OP(=O)(O)OP(=O)(O)OC[C@H]2O[C@@H](n3ccc(=O)[nH]c3=O)[C@H](O)[C@@H]2O)O[C@H](C)[C@@H](NC(C)=O)[C@@H]1O` [UDP-diNAcBac], for which, at PglC, the “capillary electrophoresis of APTS-labelled monosaccharide” value is “the conversion was low for both, UDP-diNAcBac and UDP-2-NAc-4-NAzBac”. For the compound `CC(=O)N[C@H]1[C@@H](OP(=O)(O)OP(=O)(O)OC[C@H]2O[C@@H](n3ccc(=O)[nH]c3=O)[C@H](O)[C@@H]2O)O[C@H](CO)[C@H](O)[C@@H]1O` [UDP-GalNAc], the “normal-phase HPLC of [3H]-labelled glycan” value at PglH was “the tolerance of PglH was tested by incubating enzyme with UDP-GalNAc and UDP-GalNAz”.

In the case of `[N-]=[N+]=NCC(=O)N[C@H]1[C@@H](OP(=O)(O)OP(=O)(O)OC[C@H]2O[C@@H](n3ccc(=O)[nH]c3=O)[C@H](O)[C@@H]2O)O[C@H](CO)[C@H](O)[C@@H]1O` [UDP-GalNAz], the “HPLC and scintillation counting of [3H]-labelled product” value at PglJ is given as “PglJ efficiently incorporates an azido sugar into the Und-PP-trisaccharide”.
